From ChEMBL document CHEMBL1152499, “Novel l-adenosine analogs as cardioprotective agents” (2009)
Calls of active or inactive are those of the source. No cut-off for these calls is given here.

Columns and labels:
[1] = test system: Heart; experiment: Cardioprotective activity in isolated Langendorff ischemia-reperfused Swiss Webster mouse heart assessed as increase in functional recovery of contractility; assay type: tissue-based
[2] = test system: Heart; experiment: Cardioprotective activity in isolated Langendorff ischemia-reperfused Swiss Webster mouse heart assessed as prolongation of time to ischemic contracture; assay type: functional
[3] = test system: Heart; experiment: Cardioprotective activity in isolated Langendorff ischemia-reperfused Swiss Webster mouse heart assessed as total tissue necrotic area; assay type: functional

| SMILES | Activity [1] | Activity [2] | Activity [3] |
| --- | --- | --- | --- |
| CN(C)c1ncnc2c1ncn2[C@H]1O[C@@H](CO)[C@H](N)[C@@H]1O | Active | 14.5 min | 19.1% |
| CNC(=O)[C@@H]1O[C@H](n2cnc3c(NC)ncnc32)[C@@H](O)[C@H]1N | inactive | inactive | inactive |
| Nc1ncnc2c1ncn2[C@@H]1O[C@H](CO)[C@@H](O)[C@H]1O [ADENOSINE] |  | 13.6 min | 11.5% |
